Data as given in publication PMC7796460, “Relation of Metal-Binding Property and Selective Toxicity of 8-Hydroxyquinoline Derived Mannich Bases Targeting Multidrug Resistant Cancer Cells” (Cancers, 2021).
Read-outs that look alike come from different tables or passages of the source.

Legend:
MES-SA/Dx5 cells [1] = assay: ROS determination with DCFDA, MES-SA/Dx5; assay type: cell-based, human; details: 2 h
Procedure: (§1) Measurements were performed as described earlier. Briefly, cells were harvested, washed with PBS, and incubated with 10 µM DCFDA in a water bath shaker at 37 °C for 30 min in a density of 3 × 10^6 cells/mL. After washing with PBS, cells were seeded to 96-well plates in PBS in a density of 2 × 10^4 cells/well. Following the measurement of the basal fluorescence, test compounds were added in different concentrations and the fluorescence of the samples was followed at time intervals of 10 min. DCFDA solution in buffer was used as a cell free control to test for interaction of the test compounds with DCFDA. Data were analyzed as fold change of fluorescence compared to basal levels and untreated cells. Significance was calculated using unpaired t-tests; results are given as *: p ≤ 0.05, **: p ≤ 0.01, ***: p ≤ 0.001, ****: p ≤ 0.0001.
(§2) Table S3: Characterization of intracellular ROS production with the DCFDA assay for P -gp negative MES-SA and P-gp positive MES-SA/Dx5 cells. Fold changes in fluorescence are shown after a 2 h with the investigated 8 -hydroxyquinoline ligands. Data S-refer to Figure 7 and allow […]
(§3) concentration range from 6.25µ M to 50µ M. Fold change of fluorescence obtained in the presence of 5 mM NAC is given in brackets.

MES-SA/Dx5 cells [2] = assay: MTT viability assay, MES-SA/Dx5; assay type: cell-based, human; details: for SR: Table S1, IC50 Pgp negative divided by Pgp positive cells; for SR_TQ: Table S1, presence of 1 µM TQ
Text: (§4) MDCK II canine kidney cells, A431 epidermoid carcinoma cells, the human uterine sarcoma cell lines MES-SA and the doxorubicin selected MES-SA-Dx5 were obtained from ATCC (MDCK II: No. CRL-2936™, A431: No. CRL-1555™, MES-SA: No. CRL-1976™, MES-SA/Dx5: No. CRL-1977™). ABCB1 was expressed in A431 and MES-SA cells using lentiviral transduction. The human cervix carcinoma cell line KB-3-1 and the vinblastine selected KB-v1were kind gifts from Dr. Michael M. Gottesman, National Institutes of Health. The phenotype of the resistant cells was verified using cytotoxicity assays. MDCK-B1 and MDCK-MM were established by the Sleeping Beauty transposon-based gene delivery system. OVCAR-8 and NCI-ADRres cells (obtained from the Division of Cancer Treatment and Diagnosis (DCTD) Tumor Repository (National Cancer Institute, Frederick, MD, USA)) were cultivated in RPMI-1640 (Sigma Aldrich, Budapest, Hungary), and other cell lines were cultivated in Dulbecco’s Modified Eagle Medium (DMEM, Sigma Aldrich, Budapest, Hungary), supplemented with 10% fetal bovine serum, 5 mM glutamine, and 50 unit/mL penicillin and streptomycin (Life Technologies, Carlsbad, CA, USA). All cell lines were cultivated at 37 °C, 5% CO2.
(§5) MTT viability assays were performed as described earlier with minor modifications. Briefly, cells were seeded into 96-well tissue culture plates (Sarstedt, Newton, NC, USA/Orange, Braine-l’Alleud, Belgium) at a density of 5000 cells/well and allowed to attach overnight. Test compounds were added to achieve the required final concentration in a final volume of 100 µL per well. After an incubation period of 72 h, the supernatant was removed and fresh medium containing the MTT reagent (0.083 mg/mL) was added. Incubation with MTT at 37 °C was terminated after 1 h by removing the supernatant and lysing the cells with 100 µL DMSO per well. Viability of the cells was measured spectrophotometrically based on the absorbance values at 540 nm using either a Perkin Elmer Victor X3 or an EnSpire microplate reader. Data were background corrected by subtraction of the signal obtained from unstained cell lysates and normalized to untreated cells. Curves were fitted by Prism software (GraphPad Software Inc., San Diego, CA, USA) using the sigmoidal dose-response model (comparing variable and fixed slopes). […] Significance was calculated using unpaired t-tests; results are given as *: p ≤ 0.05, **: p ≤ 0.01, ***: p ≤ 0.001, ****: p ≤ 0.0001.

MES-SA cells [3] = assay: MTT viability assay, MES-SA; assay type: cell-based, human
Text: as §4, §5

MES-SA cells [4] = assay: ROS determination with DCFDA, MES-SA; assay type: cell-based, human; details: 2 h
Procedure: as §1, §2, §3

[5] = pKa by UV-visible spectrophotometric titrations; assay type: physicochemical; details: 0.2 M KCl (ionic strength), T = 25 °C, I = 0.2 M (KCl)
[6] = Homo sapiens, MES-SA/Dx5, Table 2, value outside brackets, read-out: MES-SA/Dx5 (toxicity, Table 2)
[7] = Table 2, value outside brackets
[8] = Homo sapiens, MES-SA, Table 2, value outside brackets, read-out: MES-SA (toxicity, Table 2)
[9] = group named in the cell (NmorpholiniumH+, NpiperidiniumH+, NbenzylamineH2+), read-out: pKa (additional)
[10] = Table S1, calculated as ligand equivalents, absence of TQ, read-out: IC50 Dx5
[11] = Table S1, calculated as ligand equivalents, presence of 1 µM TQ, read-out: IC50 Dx5_TQ
[12] = Table S1, calculated as ligand equivalents, presence of 1 µM TQ, read-out: IC50 MES-SA_TQ
[13] = Table S1, ligands and in situ preformed complexes, calculated as ligand equivalents, absence of TQ, read-out: IC50 MES-SA

Structure (SMILES) | IC50 (MES-SA/Dx5 cells [2]; [6]) | SR MES-SA/Dx5 (Table 2) (MES-SA/Dx5 cells [2]; [7]) | IC50 (MES-SA cells [3]; [8]) | SR (MES-SA/Dx5 cells [2]; absence of TQ) | IC50 (MES-SA/Dx5 cells [2]; [10]) | IC50 (MES-SA/Dx5 cells [2]; [11]) | SR_TQ (MES-SA/Dx5 cells [2]) | IC50 (MES-SA cells [3]; [12]) | IC50 (MES-SA cells [3]; [13]) | other results
Oc1ccc(Cl)c2cccnc12 [Compound 5-Cl-Q-1] | 9660 ± 2480 nM | 1.08 | 10400 ± 1710 nM | – | – | – | – | – | – | Fold change in fluorescence (DCFDA) (MES-SA/Dx5 cells [1]; MES-SA/Dx5, 6.25 µM): 1.203± 0.32; Fold change in fluorescence (DCFDA) (MES-SA/Dx5 cells [1]; MES-SA/Dx5, 6.25 µM, presence of 5 mM NAC (brackets)): 1.279± 0.21; Fold change in fluorescence (DCFDA) (MES-SA/Dx5 cells [1]; MES-SA/Dx5, 12.5 µM): 1.291± 0.48; Fold change in fluorescence (DCFDA) (MES-SA/Dx5 cells [1]; MES-SA/Dx5, 12.5 µM, presence of 5 mM NAC (brackets)): 1.187± 0.23; Fold change in fluorescence (DCFDA) (MES-SA/Dx5 cells [1]; MES-SA/Dx5, 25 µM): 1.355± 0.46; Fold change in fluorescence (DCFDA) (MES-SA/Dx5 cells [1]; MES-SA/Dx5, 25 µM, presence of 5 mM NAC (brackets)): 1.220± 0.22; Fold change in fluorescence (DCFDA) (MES-SA/Dx5 cells [1]; MES-SA/Dx5, 50 µM): 1.206± 0.49; Fold change in fluorescence (DCFDA) (MES-SA/Dx5 cells [1]; MES-SA/Dx5, 50 µM, presence of 5 mM NAC (brackets)): 1.152± 0.06; SR MES-SA/Dx5 (Table 2) (MES-SA/Dx5 cells [2]; Table 2, value in brackets (Tariquidar as in Table 1)): 1.46; Fold change in fluorescence (DCFDA) (MES-SA cells [4]; 6.25 µM): 1.147± 0.32; Fold change in fluorescence (DCFDA) (MES-SA cells [4]; 6.25 µM, presence of 5 mM NAC (brackets)): 1.668± 0.35; Fold change in fluorescence (DCFDA) (MES-SA cells [4]; 12.5 µM): 1.119± 0.30; Fold change in fluorescence (DCFDA) (MES-SA cells [4]; 12.5 µM, presence of 5 mM NAC (brackets)): 1.418± 0.24; Fold change in fluorescence (DCFDA) (MES-SA cells [4]; 25 µM): 1.071± 0.35; Fold change in fluorescence (DCFDA) (MES-SA cells [4]; 25 µM, presence of 5 mM NAC (brackets)): 1.443± 0.22; Fold change in fluorescence (DCFDA) (MES-SA cells [4]; 50 µM): 0.891± 0.34; Fold change in fluorescence (DCFDA) (MES-SA cells [4]; 50 µM, presence of 5 mM NAC (brackets)): 1.209± 0.23
Oc1c(CN2CCOCC2)ccc2ccccc12 [NC-2, 2-(morpholino-methyl)naphthalen-1-ol] | 562000 ± 36800 nM | 0.75 | 422000 ± 34900 nM | – | – | – | – | – | – | pKa [5, 9]: 6.61 ± 0.02; pKa ([5]; read-out: pKa (OH)): 9.21 ± 0.02
Oc1c(CN2CCCCC2)ccc2ccccc12 [NC-3, 2-(piperidin-1-ylmethyl)naphthalen-1-ol] | 163000 ± 16600 nM | 0.86 | 140000 ± 47900 nM | – | – | – | – | – | – | pKa [5, 9]: 10.12 ± 0.01; pKa ([5]; read-out: pKa (OH)): 6.06 ± 0.01
[Cu+2].[O-]c1cccc2cccnc12.[O-]c1cccc2cccnc12 [1/2 [Cu(Q-1)2]] | – | – | – | 1.86 | 2030 ± 460 nM | 2610 ± 440 nM | 1.58 | 4140 ± 1200 nM | 3770 ± 660 nM | –
[Fe+3].[O-]c1c(CNCc2ccccc2F)cc(Cl)c2cccnc12.[O-]c1c(CNCc2ccccc2F)cc(Cl)c2cccnc12.[O-]c1c(CNCc2ccccc2F)cc(Cl)c2cccnc12 [1/3 [Fe(Q-4)3]] | – | – | – | 13.14 | 220 ± 120 nM | 3450 ± 330 nM | 1.03 | 3540 ± 130 nM | 2950 ± 1330 nM | –
[Fe+3].[O-]c1c(CN2CCCCC2)ccc2cccnc12.[O-]c1c(CN2CCCCC2)ccc2cccnc12.[O-]c1c(CN2CCCCC2)ccc2cccnc12 [1/3 [Fe(Q-3)3]] | – | – | – | 2.33 | 910 ± 220 nM | 1450 ± 250 nM | 1.25 | 1820 ± 710 nM | 2120 ± 680 nM | –
[Cu+2].[O-]c1c(CN2CCCCC2)ccc2cccnc12.[O-]c1c(CN2CCCCC2)ccc2cccnc12 [1/2 [Cu(Q-3)2]] | – | – | – | 2.52 | 760 ± 260 nM | 2040 ± 360 nM | 1.04 | 2130 ± 650 nM | 1910 ± 590 nM | –
